Data published in patent US9963476B2, “Antioxidant compound having anti atherosclerotic effect and preparation thereof” (Council of Scientific and Industrial Research, priority 2015, dated 2018).

Columns and labels:
[1] = test system: human aortic endothelial cells (HAEC); assay: Trypan blue cell viability assay, oxidant-induced endothelial cell death; type: cell-based; conditions: 2.5 μM, 2 h pretreatment, H2O2 500 μM or Ang-II 500 nM, 24 h
Procedure: Human aortic endothelial cells (HAECs) were obtained from ATCC (Manassas, Va.) and maintained (37° C. 5% CO2) in basal medium supplemented with 10% FBS, VEGF (5 ng/mL), hEGF (5 ng/mL), hFGF (5 ng/mL), IGF-1 (15 ng/mL), ascorbic acid (50 μg/mL), hydrocortisone (1 μg/mL), amphotericin (15 ng/mL), gentamicin (30 ng/mL) and heparin (0.75 Units/mL). Cells used in this study were between passages 4 and 9. Esculetin, Mito-Esc, TPP and nitric oxide synthase inhibitor (L-NAME) were added 2 h before the addition of H2O2 or Ang-II.
At the end of the treatments, cells were harvested and re-suspended in 0.4% trypan blue (Life Technologies) and percent cell viability was counted using cell countess chamber (Life Technologies).
For this, cells were pretreated for 2 h with either Mito-Esc or esculetin before they were incubated with either H2O2 or Ang-II.

[2] = test system: caspase-3 and -8 activation in HAEC; assay: Caspase-3 and -8 activity in HAEC lysates; type: cell-based, human; conditions: 2.5 μM pretreatment
Procedure: HAEC were washed twice with cold DPBS and lysed in buffer containing 10-mM Tris-HCl, 10-mM NaH2PO4/Na2HPO4 (pH, 7.5). 130-mM NaCl. 1% Triton, and 10-mM sodium pyrophosphate. Cell lysates were incubated with either with caspase-3 fluorogenic substrate (N-acetyl-Asp-Glu-Val-Asp-7-amido-4-methylcoumarin) or caspase-8 fluorogenic substrate (N-acetyl-Ileu-Glu-Thr-Asp-7 amido-4-methylcoumarin) at 37° C. for 1 h. The 7-amido-4-methyl-coumarin liberated was measured in a multi mode reader (PerkinElmer) with λex=380 nm and λem=460 nm.

[3] = test system: HAEC; assay: Cellular uptake: Mito-Esc/esculetin quantified by ESI-MS in cytosolic and mitochondrial fractions of HAEC; type: in vitro ADME, human; conditions: HAEC, 2.5 μM, 24 h
Procedure: After the treatment, cells were washed thrice with PBS. Similarly Mito-Esculetin+ Ang-II treatment group, Ang-II alone treatment group and control Apo E^−/− mice aortic tissue was taken. The isolation of mitochondrial and cytosolic extracts was carried out using a commercially available Proteo Extract Cytosol/Mitochondria Fractionation Kit (Cat. no. QIA88-Merck, USA) according to manufacturer's instructions. Initially, mitochondrial and cytosolic fractions were separated using a commercially available kit as mentioned elsewhere. Mito-Esc was quantified in the mitochondrial and cytosolic fractions obtained from HAEC and aorta of ApoE^−/− mice of different treatment groups as mentioned in Animal Experiments section (Table-1). Electrospray ionization (ESI)-MS. ESI-MS (positive mode) measurements were performed using a quadrupole time-of-flight mass spectrometer (QSTAR XL, Applied Biosystems/MDS Sciex, Foster City, Calif., USA). The data acquisition was under the control of Analyst QS software (Applied Biosystems). For the CID (collision-induced dissociation) experiments, the precursor ions were selected using the quadrupole analyzer and the product ions were analyzed using the TOF analyzer.

[4] = test system: nitric oxide generation in HAEC; assay: Intracellular nitric oxide levels by DAF-2DA fluorescence; type: cell-based, human; conditions: H2O2 500 μM, 2.5 μM, 4 h
Procedure: Intracellular nitric oxide levels were monitored by using the Diaminofluorescein-diacetate (DAF-2DA) fluorescence probe. After the treatments, cells were washed with DPBS and incubated in fresh culture medium without fetal bovine serum (FBS). DAF-2DA was added at a final concentration of 5 μM, and the cells were incubated for 30 minutes. The cells were washed twice with DPBS and maintained in culture medium. Fluorescence was monitored by using Olympus fluorescence microscope with FITC filter (λex=488 nm and […]). Fluorescence intensity was calculated by Image-Pro plus7.0 software.
To gain mechanistic insight on Mito-Esc-mediated protection of endothelial cells from oxidant-induced endothelial cell death, initially we hypothesized that Mito-Esc may augment intracellular nitric oxide generation. To study this, HAEC were treated with both Mito-Esc and esculetin in the presence or absence of H2O2 for a period of 4 h and nitric oxide (NO) levels were monitored by DAF-2 derived green fluorescence. Previously, it has been shown that DAF-2 forms a fluorescent triazole-type product in the presence of an oxidant derived from nitric oxide and oxygen interaction (Proc. Natl. Acad. Sci. USA 99: 11127-11132; 2002.; Am. J. Physiol. Regul. Integ. Comp. Physiol. 286:R344-R431; 2004). […] Next, we investigated the possible role of endothelial nitric oxide synthase (eNOS) in mediating the Mito-Esc induced NO generation in HAEC. For this, endothelial cells were treated with various concentrations of Mito-Esc (1-5 μM) for a period of 8 h. […] To further substantiate the results of DAF fluorescence, eNOS phosphorylation was measured in HAEC incubated with either with H2O2 or Ang-II for 8 h in cells pretreated with Mito-Esc or native esculetin. It was observed that both H2O2 and Ang-II caused a reduction in Phospho eNOS (Ser-1177) levels (FIG. 4D). Ang-II treatment imposed a drastic inhibition of phospho-eNOS levels when compared to H2O2 treatment in endothelial cells (FIG. 4D).

[5] = test system: AMPK1-α phosphorylation (Thr-172); assay: Western blot of AMPK phosphorylation in HAEC; type: cell-based, human; conditions: H2O2 500 μM, 2.5 μM, 8 h
Procedure: Previously, it was shown that AMPK co-immunoprecipitates with cardiac endothelial NO synthase (eNOS) and phosphorylates Ser-1177 in the presence of Ca^2+-calmodulin (CaM) to activate eNOS both in vitro and during ischaemia in rat hearts (FEBS Lett. (1999) 443:285-289). To test whether Mito-Esc mediates increased phosphorylation of eNOS through AMPK activation, initially, HAEC were treated various concentrations of Mito-Esc (1-5 μM) for 8 h and AMPK1-α phosphorylation (Thr-172) levels were measured. […] Next, we investigated the phospho-AMPK1-α levels in HAEC treated with H2O2 in the presence or absence of either Mito-Esc or native esculetin.

[6] = test system: Ang-II-induced H2O2 production in HAEC; assay: H2O2 levels by Amplex red assay; type: cell-based, human; conditions: Ang-II 500 nM, 16 h
Procedure: Amplex red reagent was used to detect the released H2O2 from cells. […] Immediately, formation of resorufin fluorescence was measured in multi mode reader (PerkinElmer) with λex=540 and λem=585.
Ang-II is known to increase oxidative stress through increased production of H2O2 (Doughan A K, Harrison D G, Dikalov S I. Circ Res (2008) 102:488-96). […] Further, we assessed the effect of Mito-Esc on H2O2-induced mitochondrial membrane depolarization. HAEC were treated with H2O2 (500 μM) in the presence or absence of Mito-Esc for a period of 16 h and mitochondrial membrane potential was measured using a mitochondrial membrane sensor kit. Mito-Sensor is a cationic dye that fluoresces differently in apoptotic and nonapoptotic cells. […] In apoptotic cells, membrane potentials are altered and the Mito-Sensor dye cannot accumulate in mitochondria and, thus, remain as monomers leading to a green fluorescence.

[7] = test system: Ang-II-induced atherosclerosis in ApoE−/− mice; assay: Serum lipid profile of Ang-II treated ApoE−/− mice; type: in vivo; conditions: serum, ApoE−/− mice, 45 days; Ang-II alone or Ang-II + Mito-Esc
Procedure: Experiments were conducted in 2-month-old male apolipoprotein E knockout (ApoE^−/−) mice according to the guidelines formulated for care and use of animals in scientific research (ICMR, New Delhi, India) at a CPCSEA (Committee for the Purpose of Control and Supervision of Experiments on Animals) registered animal facility. […] Animals were randomly divided into 3 groups each n=7:1) control 2) Ang-II treatment and 3) Mito-Esculetin+Ang-II treatment. Ang-II and Mito-Esculetin treatment groups received Ang-II (sigma) at a dose of 1.44 mg/kg/day for 6 weeks through sub-cutaneous route where as control group received normal saline. Mito-Esculetin treatment group received the compound at a dose of 0.5 mg/kg/day in normal drinking water. All animals were fed on normal chow throughout the study. After 6 weeks, all groups of animals were sacrificed as per standard protocols for euthanasia.
We further analyzed the vascular remodelling employing histological stains in tissue sections of thoracic aortas. […] In tune with this, we have also measured Mac-3 levels by flow cytometry.

Row | Compound | oxidant (H2O2 and Ang-II)-induced endothelial cell death [1] | H2O2 and Ang-II-induced caspase-3 and -8 activation [2] | Cytosolic fraction [3] [nmol/mg protein] | H2O2-mediated depletion of NO levels [4] | AMPK1-α phosphorylation in the presence of H2O2 [5] | H2O2 generation compared to untreated conditions [6] | HDL [7] [mg/dL] | LDL [7] [mg/dL] | Total Cholesterol [7] [mg/dL] | Triglycerides [7] [mg/dL] | VLDL [7] [mg/dL]
1 | c1ccc(P(c2ccccc2)c2ccccc2)cc1 [TPP^+, triphenylphosphonium cation] | did not have any appreciable cytotoxic/cytoprotective effect | – | – | – | – | – | – | – | – | – | –
2 | O=c1ccc2cc(O)c(O)cc2o1 [Esculetin, 6,7-dihydroxycoumarin, reference compound] | but not esculetin significantly inhibited | marginal effect | 6249 ± 235 | did not show any noticeable effect | significantly decreased | – | – | – | – | – | –
3 | Angiotensin-II (DRVYIHPF; Angiotensin-2; UniProt P01019 25-32, looked up) [Ang-II, inducer of oxidative stress and atherosclerosis in the models, reference compound] | – | – | – | – | – | around 2.7 fold | 02.21 ± 1.2 | 423.93 ± 29.6 | 656.19 ± 34.2 | 234.50 ± 21.5 | 46.9 ± 2.2
